Assay [1] relates to Pseudomonas aeruginosa (ATCC 27853). Nature of the assay: Cell viability assay (resazurin) screening for antibacterial activity. In kind it is cell-based. More on the design: key: Positive: A positive result indicates antibacterial activity expressed as growth inhibition; Negative: a negative result indicates no antibacterial activity expressed as bacterial growth at the tested concentration. Particulars: single high concentration of 1 mg/mL. In general terms: The colour change of resazurin is a common sign of viable cells or microbes.

Assay [2] has as its system Enterococcus faecalis (ATCC 29212). Described as above. The class given is cell-based. On the set-up: key: Positive: A positive result indicates antibacterial activity expressed as growth inhibition; Negative: a negative result indicates no antibacterial activity expressed as bacterial growth at the tested concentration. Particulars: single high concentration of 1 mg/mL.

The test system of assay [3] is MRSA-1. The assay is described as follows: Examination of bacterial cell walls by atomic force microscope (AFM). The class given is cell-based, Staphylococcus aureus. Particulars: MRSA-1, 25 μg/mL, 4 hours. The procedure: Atomic force microscopy (AFM) provides three-dimensional images of the surfaces of living microbial cells in real time and in high resolution with minimal sample preparation. Compound 1o was tested against the bacterial strain MRSA-1 and the slides were examined under AFM. Specifically, FIGS. 5A1 and 5B1 show an untreated MRSA-1 strain at scan sizes of 10 μm^2 and […], respectively, and FIGS. 5A2 and 5B2 show a MRSA-1 strain treated with compound 1o at scan sizes of 10 μm^2 and 5 μm^2, respectively. […] Rapid bacterial killing coupled with cell wall damage as evidenced in the AFM images indicate the action of compound 1o on the cell wall, as reported for the known antibiotics like polymyxin, which rapidly breaks the cell membrane of Gram-negative bacteria, causing fast cell death.
Compound 1o was tested against the bacterial strain MRSA-1. Exponentially growing bacterial cells were prepared in Mueller-Hinton broth at a concentration of approximately 10^8 CFU/mL by adjusting the turbidity to 0.5 with a McFarland™ densitometer (DEN-1B, Grant-Bio, UK). […]

Each structure is given as a SMILES string.

For the molecule `COC(=O)CC1COc2c(cc3c4c2CCCN4CCC3)-c2c(NC(C)(C)C)n3c(-c4ccc(Br)cc4)c(C)sc3[n+]21` (stereo not drawn) [Compound 1o], the “antibacterial activity, Pseudomonas aeruginosa” value in assay [1] is on record as “Negative”. Further, the “antibacterial activity, Enterococcus faecalis” value in assay [2] is given as “Positive”. The “bacterial cell morphology under AFM” value in assay [3] is “Bacterial cell shape distortion and leakage of the intracellular contents”.

Values taken from patent US10526343B2, “Heterocyclic systems and pharmaceutical applications thereof” (University of Sharjah, priority 2018, dated 2020).
